Key:
[1] = test system: Tyrosine-protein kinase ABL1 (Homo sapiens), P00519 [H396P]; settings: Compound concentration 1000.0 nM
[2] = target: Tyrosine-protein kinase receptor UFO (Homo sapiens) (UniProt P30530); settings: Compound concentration 1000.0 nM
[3] = target: Bone morphogenetic protein receptor type-2 (Homo sapiens) (UniProt Q13873); settings: Compound concentration 1000.0 nM
[4] = target: Serine/threonine-protein kinase BRSK1 (Homo sapiens) (UniProt Q8TDC3); settings: Compound concentration 1000.0 nM
[5] = target: Calcium/calmodulin-dependent protein kinase type 1G (Homo sapiens) (UniProt Q96NX5); settings: Compound concentration 1000.0 nM
[6] = target: Calcium/calmodulin-dependent protein kinase type II subunit beta (Homo sapiens) (UniProt Q13554); settings: Compound concentration 1000.0 nM
[7] = target: Cyclin-dependent kinase-like 3 (Homo sapiens) (UniProt Q8IVW4); settings: Compound concentration 1000.0 nM
[8] = target: Tyrosine-protein kinase CSK (Homo sapiens) (UniProt P41240); settings: Compound concentration 1000.0 nM
[9] = test system: Epidermal growth factor receptor (Homo sapiens), P00533 [L861Q]; settings: Compound concentration 1000.0 nM
[10] = test system: Epidermal growth factor receptor (Homo sapiens), P00533 [UNDEFINED MUTATION]; settings: Compound concentration 1000.0 nM
[11] = target: Ephrin type-A receptor 4 (Homo sapiens) (UniProt P54764); settings: Compound concentration 1000.0 nM
[12] = target: Fibroblast growth factor receptor 3 (Homo sapiens) (UniProt P22607); settings: Compound concentration 1000.0 nM
[13] = test system: Receptor-type tyrosine-protein kinase FLT3 (Homo sapiens), P36888 [R834Q]; settings: Compound concentration 1000.0 nM
[14] = target: Glycogen synthase kinase-3 beta (Homo sapiens) (UniProt P49841); settings: Compound concentration 1000.0 nM
[15] = target: Inhibitor of nuclear factor kappa-B kinase subunit alpha (Homo sapiens) (UniProt O15111); settings: Compound concentration 1000.0 nM
[16] = target: Inhibitor of nuclear factor kappa-B kinase subunit beta (Homo sapiens) (UniProt O14920); settings: Compound concentration 1000.0 nM
[17] = target: Interleukin-1 receptor-associated kinase 4 (Homo sapiens) (UniProt Q9NWZ3); settings: Compound concentration 1000.0 nM
[18] = target: Mitogen-activated protein kinase kinase kinase 15 (Homo sapiens) (UniProt Q6ZN16); settings: Compound concentration 1000.0 nM
[19] = target: MAP kinase-activated protein kinase 5 (Homo sapiens) (UniProt Q8IW41); settings: Compound concentration 1000.0 nM
[20] = target: Misshapen-like kinase 1 (Homo sapiens) (UniProt Q8N4C8); settings: Compound concentration 1000.0 nM
[21] = target: Myosin light chain kinase (Homo sapiens) (UniProt Q32MK0); settings: Compound concentration 1000.0 nM
[22] = target: Mitogen-activated protein kinase kinase kinase 10 (Homo sapiens) (UniProt Q02779); settings: Compound concentration 1000.0 nM
[23] = target: Myosin light chain kinase 2, skeletal/cardiac muscle (Homo sapiens) (UniProt Q9H1R3); settings: Compound concentration 1000.0 nM
[24] = target: Serine/threonine-protein kinase 38 (Homo sapiens) (UniProt Q15208); settings: Compound concentration 1000.0 nM
[25] = target: Serine/threonine-protein kinase Nek4 (Homo sapiens) (UniProt P51957); settings: Compound concentration 1000.0 nM
[26] = target: Mitogen-activated protein kinase kinase kinase 14 (Homo sapiens) (UniProt Q99558); settings: Compound concentration 1000.0 nM
[27] = target: Serine/threonine-protein kinase NLK (Homo sapiens) (UniProt Q9UBE8); settings: Compound concentration 1000.0 nM
[28] = target: Serine/threonine-protein kinase OSR1 (Homo sapiens) (UniProt O95747); settings: Compound concentration 1000.0 nM
[29] = target: Phosphatidylinositol 4,5-bisphosphate 3-kinase catalytic subunit beta isoform (Homo sapiens) (UniProt P42338); settings: Compound concentration 1000.0 nM
[30] = target: Phosphatidylinositol 4-kinase beta (Homo sapiens) (UniProt Q9UBF8); settings: Compound concentration 1000.0 nM
[31] = target: Serine/threonine-protein kinase N2 (Homo sapiens) (UniProt Q16513); settings: Compound concentration 1000.0 nM
[32] = target: Protein kinase C delta type (Homo sapiens) (UniProt Q05655); settings: Compound concentration 1000.0 nM
[33] = target: Protein kinase C epsilon type (Homo sapiens) (UniProt Q02156); settings: Compound concentration 1000.0 nM
[34] = target: cGMP-dependent protein kinase 2 (Homo sapiens) (UniProt Q13237); settings: Compound concentration 1000.0 nM
[35] = target: Serine/threonine-protein kinase SBK1 (Homo sapiens) (UniProt Q52WX2); settings: Compound concentration 1000.0 nM
[36] = target: Serine/threonine-protein kinase SIK2 (Homo sapiens) (UniProt Q9H0K1); settings: Compound concentration 1000.0 nM
[37] = target: SRSF protein kinase 2 (Homo sapiens) (UniProt P78362); settings: Compound concentration 1000.0 nM
[38] = target: Serine/threonine-protein kinase tousled-like 2 (Homo sapiens) (UniProt Q86UE8); settings: Compound concentration 1000.0 nM
[39] = target: Testis-specific serine/threonine-protein kinase 3 (Homo sapiens) (UniProt Q96PN8); settings: Compound concentration 1000.0 nM
[40] = target: Non-receptor tyrosine-protein kinase TYK2 (Homo sapiens) (UniProt P29597); settings: Compound concentration 1000.0 nM
[41] = target: Tyrosine-protein kinase receptor TYRO3 (Homo sapiens) (UniProt Q06418); settings: Compound concentration 1000.0 nM
[42] = target: Wee1-like protein kinase 2 (Homo sapiens) (UniProt P0C1S8); settings: Compound concentration 1000.0 nM
[43] = target: Beta-2 adrenergic receptor (Homo sapiens) (UniProt P07550); settings: Compound concentration 10.0 uM
[44] = target: GABA-A receptor; anion channel (Rattus norvegicus) (UniProt O09028+P15431+P18506+P18508+P19969+P20236+P23574+P23576+P28471+P28473+P30191+P62813+P63079+P63138+Q91ZM7+Q9ES14); settings: Compound concentration 10.0 uM

Sequence of Testis-specific serine/threonine-protein kinase 3 (Homo sapiens) (Q96PN8 whole entry): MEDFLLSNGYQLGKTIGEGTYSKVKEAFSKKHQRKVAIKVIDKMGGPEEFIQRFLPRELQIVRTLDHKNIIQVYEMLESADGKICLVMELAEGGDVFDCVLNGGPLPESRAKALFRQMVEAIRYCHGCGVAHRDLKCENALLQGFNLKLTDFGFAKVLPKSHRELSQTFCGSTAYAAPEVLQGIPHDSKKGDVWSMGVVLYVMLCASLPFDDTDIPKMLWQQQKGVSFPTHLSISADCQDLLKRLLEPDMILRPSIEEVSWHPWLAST
Sequence of Phosphatidylinositol 4,5-bisphosphate 3-kinase catalytic subunit beta isoform (Homo sapiens) (P42338 whole entry, looked up, canonical isoform): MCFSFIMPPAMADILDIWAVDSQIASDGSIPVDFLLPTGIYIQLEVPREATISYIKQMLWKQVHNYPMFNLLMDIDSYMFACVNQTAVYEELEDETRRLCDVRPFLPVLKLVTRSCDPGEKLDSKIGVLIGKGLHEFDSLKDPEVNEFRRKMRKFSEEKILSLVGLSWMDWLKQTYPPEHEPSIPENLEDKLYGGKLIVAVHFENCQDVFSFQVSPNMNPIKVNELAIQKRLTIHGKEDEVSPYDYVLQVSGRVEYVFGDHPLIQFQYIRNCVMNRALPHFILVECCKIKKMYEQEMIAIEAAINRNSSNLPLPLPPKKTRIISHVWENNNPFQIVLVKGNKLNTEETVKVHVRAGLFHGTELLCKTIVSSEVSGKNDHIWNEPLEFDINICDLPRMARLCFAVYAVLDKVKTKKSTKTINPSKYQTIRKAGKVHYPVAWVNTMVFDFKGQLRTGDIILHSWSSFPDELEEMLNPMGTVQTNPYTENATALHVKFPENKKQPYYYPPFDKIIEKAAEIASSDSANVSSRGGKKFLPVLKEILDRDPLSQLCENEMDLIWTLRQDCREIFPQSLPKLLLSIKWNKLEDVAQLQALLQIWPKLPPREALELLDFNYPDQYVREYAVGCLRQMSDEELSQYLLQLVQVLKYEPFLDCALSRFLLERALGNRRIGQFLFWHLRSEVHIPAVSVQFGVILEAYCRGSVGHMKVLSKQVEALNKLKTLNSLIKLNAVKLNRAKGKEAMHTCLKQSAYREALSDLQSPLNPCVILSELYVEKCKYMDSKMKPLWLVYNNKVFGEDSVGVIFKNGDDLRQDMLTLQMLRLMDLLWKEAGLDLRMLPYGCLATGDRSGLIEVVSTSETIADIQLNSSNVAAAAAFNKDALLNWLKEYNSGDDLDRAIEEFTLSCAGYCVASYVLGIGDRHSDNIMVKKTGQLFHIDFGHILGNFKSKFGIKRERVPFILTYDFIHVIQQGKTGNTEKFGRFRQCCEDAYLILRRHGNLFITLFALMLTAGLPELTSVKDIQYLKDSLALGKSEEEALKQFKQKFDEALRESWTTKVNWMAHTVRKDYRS
Sequence of Inhibitor of nuclear factor kappa-B kinase subunit beta (Homo sapiens) (O14920 whole entry): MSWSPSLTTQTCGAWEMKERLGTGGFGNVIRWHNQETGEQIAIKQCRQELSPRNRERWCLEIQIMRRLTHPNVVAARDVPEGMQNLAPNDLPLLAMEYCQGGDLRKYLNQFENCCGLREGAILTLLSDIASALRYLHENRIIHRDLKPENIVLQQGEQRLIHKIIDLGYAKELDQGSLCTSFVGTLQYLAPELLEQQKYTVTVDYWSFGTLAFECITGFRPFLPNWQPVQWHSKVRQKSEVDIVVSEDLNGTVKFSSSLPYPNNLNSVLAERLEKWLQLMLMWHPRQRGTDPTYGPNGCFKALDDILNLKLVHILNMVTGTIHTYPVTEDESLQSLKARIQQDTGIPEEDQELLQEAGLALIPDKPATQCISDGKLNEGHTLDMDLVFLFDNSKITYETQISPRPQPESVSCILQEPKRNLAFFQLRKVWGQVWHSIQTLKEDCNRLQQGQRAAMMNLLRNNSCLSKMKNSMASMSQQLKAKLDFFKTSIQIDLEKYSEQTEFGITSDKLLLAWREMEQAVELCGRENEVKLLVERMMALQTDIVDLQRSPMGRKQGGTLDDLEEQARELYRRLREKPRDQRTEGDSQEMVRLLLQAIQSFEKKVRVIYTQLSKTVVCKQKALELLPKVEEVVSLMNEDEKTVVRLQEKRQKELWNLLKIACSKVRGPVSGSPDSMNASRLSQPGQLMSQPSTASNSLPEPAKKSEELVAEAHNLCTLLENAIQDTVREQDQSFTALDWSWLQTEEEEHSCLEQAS
Sequence of Serine/threonine-protein kinase SBK1 (Homo sapiens) (Q52WX2 whole entry): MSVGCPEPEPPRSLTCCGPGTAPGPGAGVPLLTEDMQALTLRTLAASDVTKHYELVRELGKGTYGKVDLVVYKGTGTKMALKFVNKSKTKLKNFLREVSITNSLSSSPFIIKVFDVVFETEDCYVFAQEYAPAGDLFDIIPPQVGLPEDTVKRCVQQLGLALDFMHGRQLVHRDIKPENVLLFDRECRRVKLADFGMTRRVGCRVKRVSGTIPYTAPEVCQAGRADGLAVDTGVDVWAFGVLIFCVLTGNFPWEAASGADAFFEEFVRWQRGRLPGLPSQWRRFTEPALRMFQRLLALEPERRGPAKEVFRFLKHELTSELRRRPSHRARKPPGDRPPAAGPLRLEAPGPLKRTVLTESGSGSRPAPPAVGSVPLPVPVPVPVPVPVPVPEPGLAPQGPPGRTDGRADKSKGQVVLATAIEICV
Sequence of Tyrosine-protein kinase CSK (Homo sapiens) (P41240 2-450 limits assumed): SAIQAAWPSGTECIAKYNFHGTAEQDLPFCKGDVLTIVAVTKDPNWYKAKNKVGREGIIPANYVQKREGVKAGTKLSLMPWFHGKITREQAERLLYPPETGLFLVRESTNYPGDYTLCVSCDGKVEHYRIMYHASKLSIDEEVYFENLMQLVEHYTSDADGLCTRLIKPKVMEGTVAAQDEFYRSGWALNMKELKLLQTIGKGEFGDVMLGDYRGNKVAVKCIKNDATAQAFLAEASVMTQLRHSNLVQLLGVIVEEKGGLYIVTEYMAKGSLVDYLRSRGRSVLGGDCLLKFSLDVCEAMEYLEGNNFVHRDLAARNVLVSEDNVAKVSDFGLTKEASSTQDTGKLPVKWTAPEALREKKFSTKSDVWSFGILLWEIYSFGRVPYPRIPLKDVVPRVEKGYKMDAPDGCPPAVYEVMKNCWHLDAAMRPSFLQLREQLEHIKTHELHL
Sequence of Calcium/calmodulin-dependent protein kinase type 1G (Homo sapiens) (Q96NX5 whole entry): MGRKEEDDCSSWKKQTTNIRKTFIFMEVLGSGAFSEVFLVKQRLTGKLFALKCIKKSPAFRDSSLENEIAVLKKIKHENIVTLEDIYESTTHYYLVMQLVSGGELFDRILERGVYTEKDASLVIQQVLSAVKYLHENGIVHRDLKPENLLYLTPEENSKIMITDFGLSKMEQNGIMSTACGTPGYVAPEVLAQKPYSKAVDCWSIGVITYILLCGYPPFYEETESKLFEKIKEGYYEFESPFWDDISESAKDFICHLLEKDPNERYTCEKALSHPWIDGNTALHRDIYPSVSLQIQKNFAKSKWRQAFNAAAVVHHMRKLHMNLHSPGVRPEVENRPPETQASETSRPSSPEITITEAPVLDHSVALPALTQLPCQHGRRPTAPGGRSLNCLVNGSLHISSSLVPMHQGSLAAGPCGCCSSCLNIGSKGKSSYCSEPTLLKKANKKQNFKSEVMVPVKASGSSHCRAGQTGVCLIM
Sequence of Myosin light chain kinase (Homo sapiens) (Q32MK0 whole entry): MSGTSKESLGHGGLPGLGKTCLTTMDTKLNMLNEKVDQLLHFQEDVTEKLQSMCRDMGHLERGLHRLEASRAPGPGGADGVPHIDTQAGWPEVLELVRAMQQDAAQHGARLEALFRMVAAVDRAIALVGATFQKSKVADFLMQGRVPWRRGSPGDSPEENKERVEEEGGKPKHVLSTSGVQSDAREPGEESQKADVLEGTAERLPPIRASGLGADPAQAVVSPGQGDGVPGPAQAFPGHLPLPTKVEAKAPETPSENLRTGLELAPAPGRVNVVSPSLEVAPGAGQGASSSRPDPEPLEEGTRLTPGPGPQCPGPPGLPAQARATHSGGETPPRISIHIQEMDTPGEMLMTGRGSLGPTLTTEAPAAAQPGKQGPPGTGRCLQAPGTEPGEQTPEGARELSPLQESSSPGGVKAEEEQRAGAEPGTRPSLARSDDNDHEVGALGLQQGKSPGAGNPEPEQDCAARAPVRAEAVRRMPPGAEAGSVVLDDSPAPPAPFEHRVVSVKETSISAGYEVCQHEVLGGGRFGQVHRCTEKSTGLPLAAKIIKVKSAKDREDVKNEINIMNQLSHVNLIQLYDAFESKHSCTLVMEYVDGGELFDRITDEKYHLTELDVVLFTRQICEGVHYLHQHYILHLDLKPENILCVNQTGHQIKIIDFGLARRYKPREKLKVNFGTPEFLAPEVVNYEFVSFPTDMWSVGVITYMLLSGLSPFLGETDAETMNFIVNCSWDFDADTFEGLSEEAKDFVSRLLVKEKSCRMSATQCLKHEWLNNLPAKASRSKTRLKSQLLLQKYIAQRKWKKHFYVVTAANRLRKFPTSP
Sequence of Serine/threonine-protein kinase NLK (Homo sapiens) (Q9UBE8 whole entry): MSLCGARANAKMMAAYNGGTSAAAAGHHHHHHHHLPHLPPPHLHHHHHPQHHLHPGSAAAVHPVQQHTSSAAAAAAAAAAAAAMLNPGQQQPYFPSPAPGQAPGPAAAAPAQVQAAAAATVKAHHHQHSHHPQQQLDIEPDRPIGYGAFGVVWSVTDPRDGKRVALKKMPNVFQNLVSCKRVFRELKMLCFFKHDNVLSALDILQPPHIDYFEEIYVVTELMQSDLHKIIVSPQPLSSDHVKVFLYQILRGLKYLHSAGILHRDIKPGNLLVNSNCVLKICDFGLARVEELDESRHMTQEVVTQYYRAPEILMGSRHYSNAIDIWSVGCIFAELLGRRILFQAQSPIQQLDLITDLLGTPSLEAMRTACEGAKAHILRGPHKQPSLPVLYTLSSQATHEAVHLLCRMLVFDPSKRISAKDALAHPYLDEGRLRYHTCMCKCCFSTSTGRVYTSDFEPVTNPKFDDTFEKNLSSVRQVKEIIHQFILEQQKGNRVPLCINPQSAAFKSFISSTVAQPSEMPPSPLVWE

Cc1c(NC(=O)c2cc(C(N)=O)nc3cc(F)ccc23)c(C(F)(F)F)nn1Cc1ccc(C(C)(C)C)cc1 [BAY-588]
inactive: residual activity [1] 100% | residual activity [2] 100% | residual activity [3] 100% | residual activity [4] 100% | residual activity [5] 100% | residual activity [6] 98% | residual activity [7] 87% | residual activity [8] 94% | residual activity [9] 65% | residual activity [10] 75% | residual activity [11] 100% | residual activity [12] 92% | residual activity [13] 100% | residual activity [14] 100% | residual activity [15] 100% | residual activity [16] 100% | residual activity [17] 100% | residual activity [18] 95% | residual activity [19] 87% | residual activity [20] 90% | residual activity [21] 100% | residual activity [22] 78% | residual activity [23] 87% | residual activity [24] 93% | residual activity [25] 100% | residual activity [26] 100% | residual activity [27] 100% | residual activity [28] 100% | residual activity [29] 100% | residual activity [30] 72% | residual activity [31] 100% | residual activity [32] 100% | residual activity [33] 67% | residual activity [34] 100% | residual activity [35] 100% | residual activity [36] 100% | residual activity [37] 97% | residual activity [38] 100% | residual activity [39] 100% | residual activity [40] 100% | residual activity [41] 100% | residual activity [42] 96% | inhibition [43] 24.1% | inhibition [44] 7.34%

Cc1c(NC(=O)c2cc(C(N)=O)nc3cc(F)ccc23)c(C(F)(F)F)nn1Cc1ccc(C#N)cc1 [BAY-876]
inactive: residual activity [1] 100% | residual activity [2] 100% | residual activity [3] 89% | residual activity [4] 100% | residual activity [5] 75% | residual activity [6] 90% | residual activity [7] 80% | residual activity [8] 100% | residual activity [9] 67% | residual activity [10] 79% | residual activity [11] 99% | residual activity [12] 99% | residual activity [13] 83% | residual activity [14] 88% | residual activity [15] 65% | residual activity [16] 92% | residual activity [17] 84% | residual activity [18] 100% | residual activity [19] 84% | residual activity [20] 89% | residual activity [21] 79% | residual activity [22] 92% | residual activity [23] 90% | residual activity [24] 94% | residual activity [25] 92% | residual activity [26] 72% | residual activity [27] 100% | residual activity [28] 67% | residual activity [29] 83% | residual activity [30] 77% | residual activity [31] 81% | residual activity [32] 95% | residual activity [33] 74% | residual activity [34] 74% | residual activity [35] 75% | residual activity [36] 100% | residual activity [37] 100% | residual activity [38] 100% | residual activity [39] 82% | residual activity [40] 83% | residual activity [41] 81% | residual activity [42] 100% | inhibition [43] 21.7% | inhibition [44] 5.66%

— ChEMBL document CHEMBL4507267 (2021)
